Where no end group is shown, it is not given here.

We go through two substances from article PMC6747274, “Multifunctional Peptides from Spanish Dry-Cured Pork Ham: Endothelial Responses and Molecular Modeling Studies” (International Journal of Molecular Sciences, 2019).

Assay [1] deals with eNOS mRNA, EA.hy926 cells. Kind of assay: eNOS mRNA expression by RT-PCR in EA.hy926 cells. The note with it: 300 µM peptide 16 h, then 100 ng/mL TNF-α 6 h; p = 0.0003 (BP1), 0.04 (BP2). Format: cell-based, human. The method, then: EA.hy926 cells, the hybrid human umbilical vein endothelial cell line, were obtained from the American Type Culture Collection (ATCC® CRL2922™, Rockville, MD, USA). Cells were cultured in high glucose Dulbecco’s Modified Eagle’s Medium (DMEM), containing 10% heat-inactivated fetal bovine serum (FBS, Biowest, Riverside, CA, USA) and 50 U/mL of penicillin and 50 µg/mL streptomycin (Sigma Aldrich Chemical Co., Saint Louis, MO, USA). Cells were grown in 5% CO2 in a humidified air incubator at 37 °C. Subculture was performed when 90% confluence was reached.
EA.hy926 were seeded in six-well plates at 0.25 × 10^6 cells/well in DMEM supplemented with 5% FBS. Cells were treated with 300 µM of each peptide for 16 h. Then, 100 ng/mL TNF-α or 300 µM H2O2 were added for an additional 6 h or 24 h, respectively.
Total RNA was extracted from EA.hy926 cells using 300 µL Trisure™ (Bioline, Taunton, MA, USA) reagent and Direct-zol™ RNA MiniPrep (Zymo Research Irvine, Irvine, CA, USA) according to the manufacturer’s protocol. Total RNA was reverse-transcribed into complementary DNA (Sensifast cDNATM Synthesis kit, Bioline, Taunton, MA, USA). The mRNA levels of the target genes were quantified by RT-PCR using SensiFAST SYBER Hi-ROX Kit (Bioline, Taunton, MA, USA) with StepOnePlus Real-Time PCR System (Applied Biosystems, Foster City, CA, USA). Briefly, 5 µL of 1:5 diluted cDNA was added to the qPCR reaction containing 10 μL 2X SensiFAST Mix and 400 nM of each primer in a total volume of 20 μL.
Specific and validated primers for human glyceraldehyde-3-phosphate dehydrogenase (GADPH), intercellular adhesion marker-1 (ICAM-1), vascular cell adhesion marker-1 (VCAM-1), endothelial nitric oxide synthase (eNOS), interleukin 6 (IL-6), catalase, SOD (Super Oxide Dismutase), NADPH (Nicotinamide Adenine Dinucleotide Phosphate oxidase) and Bax (proapoptosis regulator) genes were used (Sigma-Aldrich Chemical Co., Saint Louis, MO, USA). […]
The relative quantification of gene expression was determined by the comparative fold change […] method. […]

The next assay deals with purified rabbit ACE. Conditions: purified rabbit ACE in vitro; read-out: IC50, purified rabbit ACE (given as ACE inhibitory concentration); cited from earlier work. An excerpt: Numerous reports have identified stable peptides with high ACE-inhibitory activity from pork dry-cured ham after gastrointestinal digestion. Four of them were synthetized chemically (KPVAAP, KAAAATP, KPGRP, and AAATP) for the current experimental studies with human endothelial cells.

Regarding KAAAATP [BP2], the “eNOS mRNA expression vs TNF-α stimulated cells” value in assay [1] is “recovered”. Also, the IC50 in the assay on purified rabbit ACE was 25.6 µM.

For AAATP [BP4], the IC50 in the assay with purified rabbit ACE was 100 µM.
